Active and inactive are the calls of the source. No cut-off for these calls is given here.
Legend:
Zingiber officinale [1] = assay: Increase in marketable fruit yield in Zingiber officinale (ginger) plants at 400 kg/ha applied through fumigation protocol (reference value: 48.2 ton/ha); format: functional
Meloidogyne incognita [2] = assay: Nematicidal activity against Meloidogyne incognita (root-knot nematode) in ginger crop fields assessed as root galling index at 400 kg/ha measured after 60 days post compound application (reference value: 5.49 root galling index); format: functional
Meloidogyne incognita [3] = assay: Nematicidal activity against Meloidogyne incognita (root-knot nematode) in ginger crop fields assessed as number of nematodes per 100 cm3 soil at 400 kg/ha measured after 60 days post compound application (reference value: 88.2 nematodes in 100 cm3 soil); format: functional
Digitaria sanguinalis [4] = assay: Herbicidal activity against Digitaria sanguinalis (hairy crabgrass) assessed as reduction in weed populations at 400 kg/ha; format: functional, organism-based
Stellaria media [5] = assay: Herbicidal activity against Stellaria media assessed as reduction in weed populations at 400 kg/ha; format: functional, organism-based
Ralstonia solanacearum [6] = assay: Antimicrobial activity against Ralstonia solanacearum in ginger plants fields assessed as reduction in ginger blast-induced plant mortality at 400 kg/ha applied through fumigation protocol; format: functional, organism-based
Meloidogyne incognita [7] = assay: Nematicidal activity against Meloidogyne incognita (root-knot nematode) in ginger crop fields assessed as number of nematodes per 100 cm3 soil at 400 kg/ha measured after 40 days post compound application (reference value: 75.3 nematodes in 100 cm3 soil); format: functional
Meloidogyne incognita [8] = assay: Nematicidal activity against Meloidogyne incognita (root-knot nematode) in ginger crop fields assessed as number of nematodes per 100 cm3 soil at 400 kg/ha measured after 20 days post compound application (reference value: 56.7 nematodes in 100 cm3 soil); format: functional
Zingiber officinale [9] = assay: Increase in medium fruit yield in Zingiber officinale (ginger) plants at 400 kg/ha applied through fumigation protocol (reference value: 24.6 ton/ha); format: functional
Zingiber officinale [10] = assay: Increase in large fruit yield in Zingiber officinale (ginger) plants at 400 kg/ha applied through fumigation protocol (reference value: 20.1 ton/ha); format: functional
Zingiber officinale [11] = assay: Increase in extra-large fruit yield in Zingiber officinale (ginger) plants at 400 kg/ha applied through fumigation protocol (reference value: 3.5 ton/ha); format: functional
Capsella bursa-pastoris [12] = assay: Herbicidal activity against Capsella bursa-pastoris assessed as reduction in weed populations at 400 kg/ha; format: functional, organism-based
Zingiber officinale [13] = assay: Increase in plant height of Zingiber officinale (ginger) plants at 400 kg/ha applied through fumigation protocol (reference value: 79.6 cm); format: functional
Zingiber officinale [14] = assay: Increase in stem diameter of Zingiber officinale (ginger) plants at 400 kg/ha applied through fumigation protocol (reference value: 11.3 mm); format: functional
Zingiber officinale [15] = assay: Increase in marketable fruit yield in Zingiber officinale (ginger) plants at 90 L/ha applied through fumigation protocol (reference value: 48.2 ton/ha); format: functional
Zingiber officinale [16] = assay: Increase in marketable fruit yield in Zingiber officinale (ginger) plants at 120 L/ha applied through fumigation protocol (reference value: 48.2 ton/ha); format: functional
Zingiber officinale [17] = assay: Increase in marketable fruit yield in Zingiber officinale (ginger) plants at 180 L/ha applied through fumigation protocol (reference value: 48.2 ton/ha); format: functional
Zingiber officinale [18] = assay: Increase in medium fruit yield in Zingiber officinale (ginger) plants at 90 L/ha applied through fumigation protocol (reference value: 24.6 ton/ha); format: functional
Meloidogyne incognita [19] = assay: Nematicidal activity against Meloidogyne incognita (root-knot nematode) in ginger crop fields assessed as root galling index at 90 L/ha measured after 60 days post compound application (reference value: 5.49 root galling index); format: functional
Meloidogyne incognita [20] = assay: Nematicidal activity against Meloidogyne incognita (root-knot nematode) in ginger crop fields assessed as root galling index at 120 L/ha measured after 60 days post compound application (reference value: 5.49 root galling index); format: functional
Meloidogyne incognita [21] = assay: Nematicidal activity against Meloidogyne incognita (root-knot nematode) in ginger crop fields assessed as root galling index at 180 L/ha measured after 60 days post compound application (reference value: 5.49 root galling index); format: functional
Meloidogyne incognita [22] = assay: Nematicidal activity against Meloidogyne incognita (root-knot nematode) in ginger crop fields assessed as number of nematodes per 100 cm3 soil at 90 L/ha measured after 60 days post compound application (reference value: 88.2 nematodes in 100 cm3 soil); format: functional
Meloidogyne incognita [23] = assay: Nematicidal activity against Meloidogyne incognita (root-knot nematode) in ginger crop fields assessed as number of nematodes per 100 cm3 soil at 120 L/ha measured after 60 days post compound application (reference value: 88.2 nematodes in 100 cm3 soil); format: functional
Meloidogyne incognita [24] = assay: Nematicidal activity against Meloidogyne incognita (root-knot nematode) in ginger crop fields assessed as number of nematodes per 100 cm3 soil at 180 L/ha measured after 60 days post compound application (reference value: 88.2 nematodes in 100 cm3 soil); format: functional
Meloidogyne incognita [25] = assay: Nematicidal activity against Meloidogyne incognita (root-knot nematode) in ginger crop fields assessed as number of nematodes per 100 cm3 soil at 90 L/ha measured after 40 days post compound application (reference value: 75.3 nematodes in 100 cm3 soil); format: functional
Meloidogyne incognita [26] = assay: Nematicidal activity against Meloidogyne incognita (root-knot nematode) in ginger crop fields assessed as number of nematodes per 100 cm3 soil at 120 L/ha measured after 40 days post compound application (reference value: 75.3 nematodes in 100 cm3 soil); format: functional
Zingiber officinale [27] = assay: Increase in stem diameter of Zingiber officinale (ginger) plants at 120 L/ha applied through fumigation protocol (reference value: 11.3 mm); format: functional
Zingiber officinale [28] = assay: Increase in stem diameter of Zingiber officinale (ginger) plants at 180 L/ha applied through fumigation protocol (reference value: 11.3 mm); format: functional
Ralstonia solanacearum [29] = assay: Antimicrobial activity against Ralstonia solanacearum in ginger plants fields assessed as reduction in ginger blast-induced plant mortality at 120 to 180 L/ha applied through fumigation protocol; format: functional, organism-based
Meloidogyne incognita [30] = assay: Nematicidal activity against Meloidogyne incognita (root-knot nematode) in ginger crop fields assessed as number of nematodes per 100 cm3 soil at 180 L/ha measured after 40 days post compound application (reference value: 75.3 nematodes in 100 cm3 soil); format: functional
Meloidogyne incognita [31] = assay: Nematicidal activity against Meloidogyne incognita (root-knot nematode) in ginger crop fields assessed as number of nematodes per 100 cm3 soil at 90 L/ha measured after 20 days post compound application (reference value: 56.7 nematodes in 100 cm3 soil); format: functional
Meloidogyne incognita [32] = assay: Nematicidal activity against Meloidogyne incognita (root-knot nematode) in ginger crop fields assessed as number of nematodes per 100 cm3 soil at 120 L/ha measured after 20 days post compound application (reference value: 56.7 nematodes in 100 cm3 soil); format: functional
Meloidogyne incognita [33] = assay: Nematicidal activity against Meloidogyne incognita (root-knot nematode) in ginger crop fields assessed as number of nematodes per 100 cm3 soil at 180 L/ha measured after 20 days post compound application (reference value: 56.7 nematodes in 100 cm3 soil); format: functional
Zingiber officinale [34] = assay: Increase in shoots number of Zingiber officinale (ginger) plants at 90 to 180 L/ha applied through fumigation protocol; format: functional, organism-based
Zingiber officinale [35] = assay: Increase in leaves number of Zingiber officinale (ginger) plants at 90 to 180 L/ha applied through fumigation protocol; format: functional, organism-based
Zingiber officinale [36] = assay: Increase in stem diameter of Zingiber officinale (ginger) plants at 90 L/ha applied through fumigation protocol (reference value: 11.3 mm); format: functional
Zingiber officinale [37] = assay: Increase in medium fruit yield in Zingiber officinale (ginger) plants at 120 L/ha applied through fumigation protocol (reference value: 24.6 ton/ha); format: functional
Zingiber officinale [38] = assay: Increase in medium fruit yield in Zingiber officinale (ginger) plants at 180 L/ha applied through fumigation protocol (reference value: 24.6 ton/ha); format: functional
Zingiber officinale [39] = assay: Increase in large fruit yield in Zingiber officinale (ginger) plants at 90 L/ha applied through fumigation protocol (reference value: 20.1 ton/ha); format: functional
Zingiber officinale [40] = assay: Increase in large fruit yield in Zingiber officinale (ginger) plants at 120 L/ha applied through fumigation protocol (reference value: 20.1 ton/ha); format: functional
Zingiber officinale [41] = assay: Increase in large fruit yield in Zingiber officinale (ginger) plants at 180 L/ha applied through fumigation protocol (reference value: 20.1 ton/ha); format: functional
Zingiber officinale [42] = assay: Increase in extra-large fruit yield in Zingiber officinale (ginger) plants at 90 L/ha applied through fumigation protocol (reference value: 3.5 ton/ha); format: functional
Zingiber officinale [43] = assay: Increase in extra-large fruit yield in Zingiber officinale (ginger) plants at 180 L/ha applied through fumigation protocol (reference value: 3.5 ton/ha); format: functional
Capsella bursa-pastoris [44] = assay: Herbicidal activity against Capsella bursa-pastoris assessed as reduction in weed populations at 90 to 180 L/ha; format: functional, organism-based
Digitaria sanguinalis [45] = assay: Herbicidal activity against Digitaria sanguinalis (hairy crabgrass) assessed as reduction in weed populations at 90 to 180 L/ha; format: functional, organism-based
Stellaria media [46] = assay: Herbicidal activity against Stellaria media assessed as reduction in weed populations at 90 to 180 L/ha; format: functional, organism-based
Zingiber officinale [47] = assay: Increase in plant height of Zingiber officinale (ginger) plants at 90 L/ha applied through fumigation protocol (reference value: 79.6 cm); format: functional
Zingiber officinale [48] = assay: Increase in plant height of Zingiber officinale (ginger) plants at 180 L/ha applied through fumigation protocol (reference value: 79.6 cm); format: functional
Zingiber officinale [49] = assay: Increase in plant height of Zingiber officinale (ginger) plants at 120 L/ha applied through fumigation protocol (reference value: 79.6 cm); format: functional

CBr [BROMOMETHANE]
Crop_yield (Zingiber officinale [1]): 76.4 tons/ha
Root_galling_index (Meloidogyne incognita [2]): 2.68
Activity (Meloidogyne incognita [3]): 47.4 /10'2cm3
Activity (Digitaria sanguinalis [4]): Active
Activity (Stellaria media [5]): Active
Activity (Ralstonia solanacearum [6]): Active
Activity (Meloidogyne incognita [7]): 31.6 /10'2cm3
Activity (Meloidogyne incognita [8]): 22.3 /10'2cm3
Crop_yield (Zingiber officinale [9]): 39.1 tons/ha
Crop_yield (Zingiber officinale [10]): 28.7 tons/ha
Crop_yield (Zingiber officinale [11]): 8.6 tons/ha
Activity (Capsella bursa-pastoris [12]): Active
Activity (Zingiber officinale [13]): 91.3 cm
Activity (Zingiber officinale [14]): 13.5 mm

Cl/C=C/CCl [1,3-DICHLOROPROPENE]
Crop_yield (Zingiber officinale [15]): 64.7 tons/ha
Crop_yield (Zingiber officinale [16]): 71.1 tons/ha
Crop_yield (Zingiber officinale [17]): 75.8 tons/ha
Crop_yield (Zingiber officinale [18]): 32.4 tons/ha
Root_galling_index (Meloidogyne incognita [19]): 3.66
Root_galling_index (Meloidogyne incognita [20]): 3.34
Root_galling_index (Meloidogyne incognita [21]): 2.31
Activity (Meloidogyne incognita [22]): 58.5 /10'2cm3
Activity (Meloidogyne incognita [23]): 45.5 /10'2cm3
Activity (Meloidogyne incognita [24]): 36.9 /10'2cm3
Activity (Meloidogyne incognita [25]): 45.1 /10'2cm3
Activity (Meloidogyne incognita [26]): 38.4 /10'2cm3
Activity (Zingiber officinale [27]): 12.8 mm
Activity (Zingiber officinale [28]): 13.9 mm
Activity (Ralstonia solanacearum [29]): Active
Activity (Meloidogyne incognita [30]): 27.3 /10'2cm3
Activity (Meloidogyne incognita [31]): 33.6 /10'2cm3
Activity (Meloidogyne incognita [32]): 24.2 /10'2cm3
Activity (Meloidogyne incognita [33]): 17.3 /10'2cm3
Activity (Zingiber officinale [34]): Active
Activity (Zingiber officinale [35]): Active
Activity (Zingiber officinale [36]): 12.1 mm
Crop_yield (Zingiber officinale [37]): 36.3 tons/ha
Crop_yield (Zingiber officinale [38]): 38.2 tons/ha
Crop_yield (Zingiber officinale [39]): 24.9 tons/ha
Crop_yield (Zingiber officinale [40]): 26.9 tons/ha
Crop_yield (Zingiber officinale [41]): 29.5 tons/ha
Crop_yield (Zingiber officinale [42]): 7.4 tons/ha
Crop_yield (Zingiber officinale [43]): 8.1 tons/ha
Activity (Capsella bursa-pastoris [44]): inactive
Activity (Digitaria sanguinalis [45]): inactive
Activity (Stellaria media [46]): inactive
Activity (Zingiber officinale [47]): 82.6 cm
Activity (Zingiber officinale [48]): 88.9 cm
Activity (Zingiber officinale [49]): 85.4 cm

Source: ChEMBL document CHEMBL3046436, “Effects of 1,3-dichloropropene as a methyl bromide alternative for management of nematode, soil-borne disease, and weed in ginger (Zingiber officinale) crops in China” (2012)
